Patent US9428790B2, “Simultaneous measurement of thrombin generation and clot strength in plasma and whole blood” (SYNAPSE B.V., priority 2012, dated 2016)

What was measured:
Assay type in all cases: biochemical
fibrin polymerization = experiment: Clot strength (viscosity) in triggered platelet-poor plasma on rotary rheometer with Doolittle peptide; details: 0.5 mM up to 2 mM peptide, shear rate 300/s, 5 pM TF, 4 μM PL, FIG. 6 upper panel
Method: (§1) Blood was obtained through venipuncture (1 volume tri-sodium citrate 0.13M to 9 volumes blood). Free flow or minimal suction should be employed, and vacuum containers avoided. Platelet poor plasma (PPP) was obtained by centrifugation of blood twice at 2630 g for 10 min.
(§2) Recombinant relipidated tissue factor (rTF) not containing polybrene or Ca^++ was from Dade Behring (Marburg, Germany). For each experiment, a fresh mixture of Tissue Factor (TF) and phospholipids vesicles (PL) (Avanti, Alabaster, Ala., USA) was prepared, resulting in a final concentration of 5 pM TF and 4 μM PL in Hepes buffer (20 mM, pH 7.35) containing 5 mg/l BSA (Sigma, A-7030). Recombinant tissue plasminogen activator (tPA) was obtained from Boehringer Ingelheim GmbH, Germany as actylase™. […] Upon splitting by thrombin, it releases the fluorescent rhodamine (Rho), which is measured by a 470 nm excitation and a 520 emission filter set. […] The by plasmin released fluorescent 7-Amino-4-methylcoumarin (AMC) is measured by a 365 nm excitation and a 430 nm emission filter set. […]
(§3) Using a signal substrate with a fluorescent leaving group, thrombin generation was measured via a fluorescence detector. The strength of the formed fibrin clot was monitored by an oscillating or rotating measuring system of a specially designed rheometer (Physica MCR 301, Anton Paar Germany GmbH, Ostfildern). […]

thrombin generation = experiment: Thrombin generation (fluorogenic substrate, calibrated) in triggered platelet-poor plasma with Doolittle peptide; details: 0.5 mM up to 2 mM peptide, shear rate 300/s, FIG. 6 lower panel
Method: as §1
as §2, with “A-7030).” for “A-7030). Recombinant tissue plasminogen activator (tPA) was obtained from Boehringer Ingelheim GmbH, Germany as actylase™.”
The calibrator, α2M-Thrombin complex (α2MT), was prepared in house as previously described. The concentration of α2M-Thrombin is measured by its ability to hydrolyze the chromogenic substrate S2238. […] After adding bovine antithrombin and heparin (LEO) this material was ready for use as a thrombin calibrator.
Using a signal substrate with a fluorescent leaving group, thrombin generation was measured via a fluorescence detector. […]

plasmin = target: T1, plasmin (Homo sapiens, UniProt P00747); experiment: Plasmin generation (raw fluorescence, H-Ala-Leu-Lys-AMC) in tPA-triggered platelet-poor plasma; details: 100 U/ml tPA, rotation 300/s, FIG. 8 upper panel
T1 construct: from tissue; host or cells: platelet-poor plasma from citrated blood
Method: as §1
as §2, with “A-7030).” for “A-7030). Recombinant tissue plasminogen activator (tPA) was obtained from Boehringer Ingelheim GmbH, Germany as actylase™.”
A total of 700 μl (in case of plasma) or 800 μl (in case of blood) sample and substrate was added on the thermostated sample holder at 37° C. of the rheometer. […] Immediately after addition of the FluCa, the viscosity (or Torque in case of oscillation of the measuring system) and fluorescence were measured every 10 seconds and every second at 470/520 nm respectively. […]

fibrin = experiment: Clot strength (viscosity) in tPA-triggered platelet-poor plasma on rotary rheometer; details: 100 U/ml tPA, rotation 300/s, FIG. 8 lower panel
Method: as §1, §2, §3

fibrinolysis = experiment: Clot strength (torque, oscillation mode) in triggered whole blood with tPA; details: 300 U/ml tPA, oscillation 10 Hz, angle 1°, inset
Method: as §1, §2, §3

T1 sequence (P00747 581-810 limits assumed): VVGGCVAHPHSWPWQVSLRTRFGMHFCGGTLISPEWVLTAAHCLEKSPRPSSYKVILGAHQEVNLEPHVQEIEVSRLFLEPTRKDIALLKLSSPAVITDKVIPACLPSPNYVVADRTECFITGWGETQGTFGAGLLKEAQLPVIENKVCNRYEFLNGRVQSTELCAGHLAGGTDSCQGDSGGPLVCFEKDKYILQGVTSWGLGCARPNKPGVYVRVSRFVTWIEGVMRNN
T1 sequence (P00747 97-580 partner limits assumed): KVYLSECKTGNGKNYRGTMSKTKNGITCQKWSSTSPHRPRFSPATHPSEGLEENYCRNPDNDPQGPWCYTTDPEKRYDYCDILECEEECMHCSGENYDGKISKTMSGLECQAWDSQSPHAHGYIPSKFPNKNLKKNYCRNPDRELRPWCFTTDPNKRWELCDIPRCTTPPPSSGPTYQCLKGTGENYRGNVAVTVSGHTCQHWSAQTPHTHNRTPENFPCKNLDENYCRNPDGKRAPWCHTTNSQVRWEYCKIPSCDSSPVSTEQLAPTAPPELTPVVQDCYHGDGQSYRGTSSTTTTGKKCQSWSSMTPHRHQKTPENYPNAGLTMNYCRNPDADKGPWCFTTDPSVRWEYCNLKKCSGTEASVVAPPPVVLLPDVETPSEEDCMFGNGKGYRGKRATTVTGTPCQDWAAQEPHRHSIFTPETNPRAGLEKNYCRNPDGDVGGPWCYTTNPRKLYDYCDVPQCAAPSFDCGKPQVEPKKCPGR

| plasmin generation (raw fluorescence) (plasmin) | Substance | viscosity of the sample compared to the control sample (fibrin polymerization) | effect on the thrombin generation (thrombin generation) | viscosity (degradation of fibrin) (fibrin) | fibrinolysis (torque) (fibrinolysis) |
| --- | --- | --- | --- | --- | --- |
| – | Gly-Pro-Arg-Pro (GPRP; printed: Gly-Pro-Arg-Pro) [Doolittle peptide] | significantly decreased the viscosity | minimal | – | – |
| activation of plasmin | tPA: Recombinant tissue plasminogen activator (tPA) obtained from Boehringer Ingelheim GmbH as actylase™ | – | – | decrease in viscosity | fibrinolysis could be followed |
